According to the NIST ThermoML archive (doi:10.1007/s10765-005-8590-7):

Test: xn = mol fraction of the nth substance listed
Settings: Fluid (supercritical or subcritical phases), Constant-volume piezometry

N [ammonia] + O
Settings	mass density [kg/m3]
269.14 K, 2812.6 kPa, x1 = 0.1086	963.53
269.14 K, 5179.9 kPa, x1 = 0.0644	979.78
269.15 K, 1141.1 kPa, x1 = 0.1436	952.26
269.15 K, 4001.7 kPa, x1 = 0.0999	970.97
269.15 K, 8192.6 kPa, x1 = 0.064	980.19
269.15 K, 8194.7 kPa, x1 = 0.064	980.19
269.17 K, 15892 kPa, x1 = 0.047	989.66
269.18 K, 4424 kPa, x1 = 0.0955	968.23
269.19 K, 2364.1 kPa, x1 = 0.0582	979.69
269.2 K, 5071.6 kPa, x1 = 0.1386	955.44
270.13 K, 15862 kPa, x1 = 0.047	989.62
270.14 K, 4346.8 kPa, x1 = 0.0302	991.12
270.15 K, 1609 kPa, x1 = 0.1436	952.18
270.15 K, 7195.1 kPa, x1 = 0.0513	984.77
270.15 K, 15862 kPa, x1 = 0.047	989.62
270.99 K, 16062 kPa, x1 = 0.0606	986.82
271.11 K, 15856 kPa, x1 = 0.047	989.57
271.12 K, 467.5 kPa, x1 = 0.0591	975.44
271.13 K, 15857 kPa, x1 = 0.047	989.57
271.14 K, 3349.5 kPa, x1 = 0.1086	963.41
271.15 K, 2091.5 kPa, x1 = 0.1436	952.11
271.15 K, 3960.4 kPa, x1 = 0.014	996.21
271.15 K, 7177.2 kPa, x1 = 0.0513	984.72
271.15 K, 8265.9 kPa, x1 = 0.064	980.1
271.16 K, 4437.7 kPa, x1 = 0.0999	970.85
271.17 K, 4208.2 kPa, x1 = 0.0302	991.09
271.17 K, 5274.3 kPa, x1 = 0.0644	979.69
271.18 K, 2339.7 kPa, x1 = 0.0582	979.6
271.18 K, 4814.2 kPa, x1 = 0.0955	968.12
272.15 K, 3778.7 kPa, x1 = 0.014	996.18
272.15 K, 4113.5 kPa, x1 = 0.0302	991.05
272.15 K, 7185.7 kPa, x1 = 0.0513	984.68
272.15 K, 15879 kPa, x1 = 0.047	989.53
273.13 K, 4952 kPa, x1 = 0.0999	970.74
273.14 K, 506.6 kPa, x1 = 0.0591	975.35
273.14 K, 4040.3 kPa, x1 = 0.0302	991.01
273.14 K, 16263 kPa, x1 = 0.0606	986.71
273.15 K, 2431.2 kPa, x1 = 0.0582	979.51
273.15 K, 3104.4 kPa, x1 = 0.1436	951.96
273.15 K, 3633.6 kPa, x1 = 0.014	996.14
273.15 K, 3634.2 kPa, x1 = 0.014	996.14
273.15 K, 3935 kPa, x1 = 0.1086	963.29
273.15 K, 7219.4 kPa, x1 = 0.0513	984.63
273.15 K, 8435.9 kPa, x1 = 0.064	980.01
273.17 K, 15928 kPa, x1 = 0.047	989.48
274.14 K, 16000 kPa, x1 = 0.047	989.44
274.15 K, 3992.2 kPa, x1 = 0.0302	990.97
274.15 K, 7279.5 kPa, x1 = 0.0513	984.59
274.99 K, 16547 kPa, x1 = 0.0606	986.61
275.08 K, 7892.7 kPa, x1 = 0.1386	955.03
275.13 K, 677.5 kPa, x1 = 0.0591	975.25
275.14 K, 2612.8 kPa, x1 = 0.0582	979.41
275.15 K, 3430.4 kPa, x1 = 0.014	996.07
275.15 K, 3431.2 kPa, x1 = 0.014	996.07
275.15 K, 3970.2 kPa, x1 = 0.0302	990.93
275.15 K, 4178.5 kPa, x1 = 0.1436	951.81
275.15 K, 4633.1 kPa, x1 = 0.1086	963.16
